Publication PMC12736008, “New Dimethylpyridine-3-Carboxamide Derivatives as MMP-13 Inhibitors with Anticancer Activity” (Molecules, 2025)

Columns and labels:
[1] = tested on: HT-29 (colorectal adenocarcinoma) cells; experiment: MTT assay, HT-29; format: cell-based, human; conditions: for reduction in cancer cell viability / anticancer potential (HT-29): MTT, 24 h, 0.004 mM to 0.5 mM
Text: As mentioned earlier, MMP-13 is overexpressed and functionally significant in various cancers, including melanoma and colorectal carcinoma. For instance, high MMP-13 levels have been correlated with metastasis and poor survival in melanoma patients. In colorectal cancer, elevated MMP-13 activity has been observed in tumors compared to normal mucosa, and its expression is associated with a worse prognosis. Based on computational studies, four out of the eleven designed compounds showing the most promising predicted activity against MMP-13 were selected for biological evaluation. For the MTT assay, NHDF cells were used as the healthy reference cell line, while A375 (melanoma) and HT-29 (colorectal adenocarcinoma cancer) cell lines were chosen as cancer models.
Experiments were conducted using two cancer cell lines and, as a control, a normal human dermal fibroblasts (NHDF; ATCC PCS-201-012). The A375 cell line (human melanoma, ATCC CRL-1619), and HT-29 cell line (human colorectal adenocarcinoma, ATCC HTB-38) were cultured in DMEM (Dulbecco’s Modified Eagle Medium, Institute of Immunology and Experimental Therapy (IITD), Wrocław, Poland) supplemented with 1% antibiotics (10 U/mL penicillin and 10 µg/mL streptomycin, Sigma-Aldrich, St Louis, MO, USA), 1% glutamine (Sigma-Aldrich, St Louis, MO, USA) and 10% fetal bovine serum (FBS, Gibco, Grand Island, NY, USA). For NHDF cultures, α-MEM (α-Minimum Essentials Medium, Institute of Immunology and Experimental Therapy (IITD), Poland) was used with the same supplement combination as for the cancer cell lines. All cells were maintained in a humidified incubator (INCO 105, Memmert GmbH, Schwabach, Germany) at 37 °C with 5% CO2 and 95% humidity. Cells were passaged routinely by trypsinization (twice a week). For the MTT (3-(4,5-simethylthiazol-2,5-diphenyltetrazolinum bromide), Sigma, St. Louis, MO, USA) assay, cells were used after 2–4 passages, when they reached approximately 80% confluence.
All tested compounds were dissolved in DMSO to obtain stock solutions with a final concentration of 50 mM (3a, 3b, 3e), 40 mM (3f, 3g, 3i, 3j), and 35 mM (3h, 3k). […] In the next step, 10 µL of each stock solution was added to 990 µL of supplemented medium.
The MTT assay was performed in 96-well plates, with a seeding density of 1 × 10^4 cells per well. All cell lines were incubated for 24 h in their respective media: α-MEM for (NHDF cells) and DMEM for (A375 and HT-29) cells. After incubation, the medium was removed and replaced with fresh medium containing the tested compounds at concentrations ranging from 0.004 mM to 0.5 mM. […] Absorbance was measured spectrophotometrically at a wavelength of 570 nm using a BioTek SYNERGY H1 microplate reader (Agilent, Santa Clara, CA, USA).

HSA/Dansyl-L-Phe = biological target: T1, HSA/Dansyl-L-Phe (Homo sapiens, UniProt P02768); experiment: Marker displacement from HSA/Dansyl-L-Phe complex (Sudlow site II); format: binding; conditions: room temperature
T1 construct: purchased Sigma-Aldrich
Text: (§1) The human serum albumin (HSA) has two main drug-binding sites, known as Sudlow site I and Sudlow site II, located in subdomains IIA and IIIA of the albumin structure, respectively. […] In addition to these main sites, HSA has the capacity to bind ligands in other regions, including histidine residues, the N-terminus of the molecule, and metal binding sites. However, it is most common for drugs to bind to Sudlow I and Sudlow II. In order to study binding to a specific site in the protein, fluorescent markers, Dansyl-L-Gly and Dansyl-L-Phe, were used. The Dansyl-L-Gly interacts with Sudllow I, while the Dansyl-L-Phe prefers Sudllow II [41, 42]. The tested compounds were added in portions to the solution that contained the HSA/marker complex, and the fluorescence spectrum was recorded (Figure 11 and Figure 12). The percentage of compound exchange in the albumin pocket was calculated using Equation (6):(6) displacement % =F^0 −F /F^0 where F^0 is the maximum fluorescence intensity of HSA/Dansyl-L-Gly complex, and F is the maximum fluorescence intensity after a quencher addition. The calculated data were collected in Table 6. It was observed that only compound 3b displaces from the Dansyl-L-Gly binding site, as indicated by a decrease in fluorescence intensity with increasing concentration of this derivative, but only to approximately 8%. […] The band intensity increases slightly, which may be due to the dilution of the solution. The dilution of the sample leads to an increase in the average distance between molecules. This, in turn, results in a reduction in the number of collisions and reabsorptions, thereby enhancing the efficiency of fluorescence emission. Nevertheless, the binding site for Dansyl-L-Phe was displaced by all of the tested derivatives.
Solutions of Dansyl-L-Phe (Chem-Norm Biotech, Wuhan, China) and Dansyl-L-Gly (Sigma-Aldrich, Tokyo, Japan) were prepared by dissolving them separately in ethanol to a final concentration of 1·10^−3 mol/dm^3. The HSA solution was prepared in the same way as for titration binding measurements. Spectra were recorded at room temperature using a Cary Eclipse 500 spectrophotometer (Agilent, Santa Clara, CA, USA) with an excitation wavelength of 350 nm, and an emission range of 410–670 nm and the PMT voltages were (V) 700 and 650 for Dansyl-L-Gly and Dansyl-L-Phe, respectively. The complexes were prepared by mixing the HSA solution with the dansylated markers, and then adding the solution of the studied compounds from a ratio of 0 to 11.0 molar at the same increments, using the same protocol as in the spectroscopy studies.

HSA/Dansyl-L-Gly = biological target: T2, HSA/Dansyl-L-Gly (Homo sapiens, UniProt P02768); experiment: Marker displacement from HSA/Dansyl-L-Gly complex (Sudlow site I); format: binding; conditions: room temperature
T2 construct: purchased Sigma-Aldrich
Text: as §1, with “The dilution of the sample leads to an increase in the average distance between molecules.” left out, “Nevertheless, the binding site for Dansyl-L-Phe was displaced by all of the tested derivatives.” left out
Solutions of Dansyl-L-Phe (Chem-Norm Biotech, Wuhan, China) and Dansyl-L-Gly (Sigma-Aldrich, Tokyo, Japan) were prepared by dissolving them separately in ethanol to a final concentration of 1·10^−3 mol/dm^3. […] Spectra were recorded at room temperature using a Cary Eclipse 500 spectrophotometer (Agilent, Santa Clara, CA, USA) with an excitation wavelength of 350 nm, and an emission range of 410–670 nm and the PMT voltages were (V) 700 and 650 for Dansyl-L-Gly and Dansyl-L-Phe, respectively. […]

T1 sequence (P02768 25-609): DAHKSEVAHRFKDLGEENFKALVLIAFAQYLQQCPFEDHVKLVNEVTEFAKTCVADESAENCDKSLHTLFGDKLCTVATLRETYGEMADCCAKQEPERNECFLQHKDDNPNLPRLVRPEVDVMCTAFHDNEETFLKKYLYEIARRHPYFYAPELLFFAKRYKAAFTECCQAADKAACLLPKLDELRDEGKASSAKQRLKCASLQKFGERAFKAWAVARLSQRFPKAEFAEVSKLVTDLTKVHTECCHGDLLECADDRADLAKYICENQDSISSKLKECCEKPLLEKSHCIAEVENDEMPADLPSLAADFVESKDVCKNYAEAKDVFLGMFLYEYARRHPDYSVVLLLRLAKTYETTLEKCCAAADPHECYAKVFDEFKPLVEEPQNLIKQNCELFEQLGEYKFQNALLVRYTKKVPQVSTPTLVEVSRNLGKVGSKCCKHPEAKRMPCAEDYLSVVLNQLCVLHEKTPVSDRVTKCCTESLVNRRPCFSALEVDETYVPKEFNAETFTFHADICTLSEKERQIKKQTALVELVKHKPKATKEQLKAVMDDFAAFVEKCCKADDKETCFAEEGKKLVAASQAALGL
T2 sequence (P02768 25-609): as above

| SMILES | selectivity ratio HT-29:NHDF ([1]; at a concentration of 0.5 mM) | Marker Displacement Percentage HSA/Dansyl-L-Gly (HSA/Dansyl-L-Phe) [%] | reduction in cancer cell viability / anticancer potential (HT-29) [1] | Marker Displacement Percentage HSA/Dansyl-L-Gly (HSA/Dansyl-L-Gly) |
| --- | --- | --- | --- | --- |
| Cc1cc(C)c(C(=O)NCC(=O)NCc2ccc(Oc3ccccc3)cc2)c(S)n1 [Compound 3b, 4,6-dimethyl-N-{2-[(4-phenoxybenzyl)amino]-2-oxoethyl}-2-sulfanylpyridine-3-carboxamide] | 0.43 | 35.2 | – | – |
| Cc1cc(C)c(C(=O)NCC(=O)NCc2ccc(Cl)cc2)c(S)n1 [Compound 3c, N-{2-[(4-chlorobenzyl)amino]-2-oxoethyl}-4,6-dimethyl-2-sulfanylpyridine-3-carboxamide] | – | 18.5 | strongest reduction in cancer cell viability | no quenching occurs at all |
| Cc1cc(C)c(C(=O)NCC(=O)NCc2ccccc2Cl)c(S)n1 [Compound 3d, N-{2-[(2-chlorobenzyl)amino]-2-oxoethyl}-4,6-dimethyl-2-sulfanylpyridine-3-carboxamide] | – | 10.6 | strongest reduction in cancer cell viability | no quenching occurs at all |
| Cc1cc(C)c(C(=O)NCC(=O)NCc2ccccc2)c(S)n1 [Compound 3g, 4,6-dimethyl-N-[2-(benzylamino)-2-oxoethyl]-2-sulfanylpyridine-3-carboxamide] | – | 11.1 | only moderate anticancer potential | no quenching occurs at all |
